Data: patent US12156938B2, “Liposomes for targeting tumor-associated macrophages” (Universiteit Twente, priority 2018, dated 2024)

What was measured:
THP-1 macrophages [1] = test: Cell growth after 24-hour treatment of MTP-PE and IFNγ; type: cell-based, human; details: IFNγ 20 ng/ml
Experimental: FIG. 12. In vitro effects of MTP-PE and IFNγ in differentiated THP-1 macrophages. qPCR analysis of macrophage differentiation with MTP-PE with or without IFNγ for M1 markers IL-1β, IL-6, TNFα and M2 markers for DC-SIGN. […] B) The cell growth was evaluated after 24-hour treatment of MTP-PE and IFNγ C) MTP-PE, in synergy with IFNγ activates tumoricidal properties by inducing more M1 markers. Bars represent mean+SEM, n=3 *p<0.05, **p<0.005, ***p<0.001.
(§1) (IL-1β and TNFα) in TAMs, which indicates the switch of M2 macrophages toward M1 phenotype (FIG. 12A). In the second experiment, IFNγ, a well-known inducer of M1 macrophage differentiation, was tested (Sica et al. 2012 J. Clin. Invest. 122, 787-795, doi:10.1172/JCI59643), and MTP-PE to understand the role of IFNγ potentiation effect on macrophage reprogramming.

THP-1 macrophages [2] = test: Effect of MTP-PE and IFNγ on differentiated THP-1 macrophages (qPCR); type: cell-based, human; details: for DC-SIGN (M2 marker) expression in TAMs: second experiment, with or without IFNγ
Experimental: (§2) Macrophages were differentiated as reported in [7]. Briefly, THP-1 cells were treated for 24 hours with 100 ng/ml of phorbol 12-myristate 13-acetate (PMA, Cayman Chemicals) to allow their attachment. The medium was replaced by medium containing 20 ng/ml IL-4 and IL-13 (Peprotech, London, UK) for M2 differentiation, or 20 ng/ml IFNγ (Peprotech) and 100 ng/ml LPS (Sigma Aldrich) for M1 differentiation. Cells were incubated with cytokines for 24 hours (gene expression on differentiation), and 72 hours (liposome uptake experiments). BMDMs were plated overnight with a density of 50,000 cells/ml. After 24 hours, medium was aspirated. Cells were incubated for 24 hours in complete RPMI medium containing IL-4 and IL-13 at 10 ng/ml (M2 differentiation) or LPS and IFN-γ at 100 and 10 ng/ml. In case of RAW264.7 cells, M1 macrophages were differentiated using 10 ng-mL murine recombinant IFNγ and 10 ng-mL LPS. M2 macrophages were differentiated using 10 ng-mL murine IL-4 and IL-13.
(§3) 0.5×10^6 RAW264.7/THP-1 cells were plated in 12-well plates, if applicable treated with respective cytokines for differentiation, and activated using PMA. Cells were then incubated with different liposomal preparations (50 μM) or differentiation cytokines for 24 hours. BMDM were differentiated as described above. After differentiation, cells were washed with PBS and then lysed using lysis buffer and total RNA was isolated using SV Total RNA Isolation System (Promega, Madison, WI). cDNA was prepared by using iScript cDNA synthesis kit (Bio-Rad, Hercules, CA) and qRT-PCR was performed with 10 ng of cDNA per reaction mixture using SYBR green assay (Bioline, London, UK). Reactions were measured using the CFX384 Real-Time PCR detection system (Bio-Rad). The threshold cycles (Ct) values were calculated and relative gene expression (ddCt method) was analyzed after normalization using the Rsp18 (THP-1) or Gapdh (RAW264.7/BMDM) house-keeping gene.
Next, the effect of MTP-PE on differentiated human macrophages THP-1 was investigated.
as §1

RAW 264.7 macrophages = test: Effect of MTP-PE on differentiated RAW 264.7 macrophages (qPCR); type: cell-based, murine
Experimental: as §2, §3
To study the effect of MTP-PE, murine macrophages RAW 264.7 were first differentiated with IFNγ and LPS for M1 and with IL-4 and IL-13 for M2 macrophages (TAM). […]

[3] = tested on: 4T1 orthotopic tumor model; details: free AS1517499, 20 mg/kg; i.p route; cited from earlier work
4T1 breast tumor model [4] = test: Efficacy of AS1517499-loaded liposomes on tumor growth in the 4T1 breast tumor model; type: in vivo, mice; details: 8 mg/kg, intravenous route, twice weekly
Experimental: (§4) For efficacy analysis of AS1517499-loaded liposomes, 1×10^5 Luc-cells were injected into the mammary fat pad, and tumors were allowed to develop to a size of 100 mm^3. Thereupon, treatment with AS1517499-loaded liposomes (8 mg/kg, intravenous administrations, twice a week) was started. Before sacrifice, mice were injected with 2.5 mg of D-Luciferin (Perkin-Elmer, Waltham, MA) and were imaged after 15 minutes to detect bioluminescence signal using a Pearl Trilogy imager (LICOR).
Mouse 4T1-Luc cells were injected orthotopic into the mammary fat pad of BalbC mice. The mice were randomly assigned into five groups: a) treated with PBS as the vehicle group, b) treated with free AS, c) treated with AS-HSPC liposomes, d) treated with AS-PAzPC liposomes, e) treated with empty PAzPC liposomes. […] Since the loading of the AS1517499 was little in the liposomes, 8 mg/kg was injected, intravenous route, twice weekly.

4T1 breast tumor model [5] = test: Effect of AS-loaded liposomes on pre-metastatic niche in liver and lungs (qPCR); type: in vivo, mice; details: compared to the vehicle group
Experimental: as §4
TAMs display a number of pro-tumoral functions, including extracellular matrix remodeling, neoangiogenesis, suppression of adaptive immunity and facilitate tumor metastasis (Allavena et al. 2012 Exp. Immunol. 167, 195-205, doi:10.1111/j.1365-2249.2011.04515.x). […] As most of cancer related mortalities occur due to metastasis, the effect of AS-loaded liposomes on the pre-metastatic niche in the organs (liver and lungs) of the 4T1 breast tumor was examined using qPCR analysis (FIG. 9).

[6] = increasing concentrations of MTP-PE

Q: Which Cell growth (THP-1 macrophages [1]) does the source give for “muramyl tripeptide-phosphatidyl ethanolamine [MTP-PE]” here?
A: The Cell growth was “no direct effect on the cell growth”.

Q: And the “DC-SIGN gene expression (M2 differentiation)” value (THP-1 macrophages [2]; 1 and 10 ug/ml, first experiment)?
A: Its value is “reduced expression of DC-SIGN gene”.

Q: What about the “M1 type differentiation markers in presence of M1 cytokines” value (THP-1 macrophages [2]; data not shown) of the same molecule?
A: Its value is “increased the M1 type differentiation markers”.

Q: And the “M1 cytokine markers (IL-1β and TNFα) in TAMs” value (THP-1 macrophages [2]; first experiment)?
A: The value was “induced M1 cytokine markers”.

Q: What about the “DC-SIGN (M2 marker) expression in TAMs” value (THP-1 macrophages [2]) of the same molecule?
A: The value was “reduced the expression of DC-SIGN”.

Q: And the “Cytokines (IL-1β, IL-6, TNFα) expression in M1 differentiation” value (RAW 264.7 macrophages; MTP-PE dose-dependent conc., in presence of IFNγ)?
A: The value was “increasing the cytokines (IL-1β, IL-6, TNFα) expression”.

Q: And the “M2 macrophage markers (MRC-1, ARG-1) in M2 macrophages” value (RAW 264.7 macrophages; [6])?
A: The value was “did not show any inhibition”.

Q: What about the “TNFα expression in M2-type macrophages” value (RAW 264.7 macrophages; [6]) of the same molecule?
A: The value was “increased TNFα expression”.

Q: Which results are given for `NC(=O)c1cnc(NCCc2ccc(O)c(Cl)c2)nc1NCc1ccccc1` [AS1517499]?
A: Premetastatic niche in liver [3]: reduced premetastatic niche in liver; Tumor volume compared to the vehicle group [3]: inhibited tumor volume significantly; Tumor volume/weight compared to the vehicle group (4T1 breast tumor model [4]): no difference in tumor volume/weight; CD31, collagen I, periostin, fibronectin expression in liver samples (4T1 breast tumor model [5]): no statistically significant difference

B1: IFNγ: cytokine that activates inflammatory M1-type macrophages (protein, UniProt P01579 24-161, looked up)
Interferon gamma: QDPYVKEAENLKKYFNAGHSDVADNGTLFLGILKNWKEESDRKIMQSQIVSFYFKLFKNFKDDQSIQKSVETIKEDMNVKFFNSNKKKRDDFEKLTNYSVTDLNVQRKAIHELIQVMAELSPAAKTGKRKRSQMLFRG
Q: With B1 as the molecule, how does the Cell growth (THP-1 macrophages [1]) read?
A: The Cell growth was “reduced the cell growth significantly”.

Q: What about the “DC-SIGN (M2 marker) expression in TAMs” value (THP-1 macrophages [2]) of the same molecule?
A: The value was “increased expression of DC-SIGN”.
